Experimental data reported in publication PMC8570331, “8-Hydroxyquinoline-Amino Acid Hybrids and Their Half-Sandwich Rh and Ru Complexes: Synthesis, Anticancer Activities, Solution Chemistry and Interaction with Biomolecules” (International Journal of Molecular Sciences, 2021).
Entries after “also recorded” stand apart in the source; their conditions may differ.

How the values were obtained:
Colo-205 cells = assay: Annexin V-FITC / propidium iodide apoptosis induction assay, flow cytometry; type: cell-based, human; conditions: 25 μM, 3 h induction
Source text: 12H-Benzo[α]phenothiazine (M627) and cisplatin were used as positive controls. Annexin-V assay offers the possibility of detecting early phases of apoptosis. Apoptosis is a morphologically and biochemically distinct form of programmed cell death, which is the preferred mode of action for an anticancer compound. PI was used to distinguish between viable, early apoptotic and necrotic or late apoptotic cells. […] In order to better understand the different behavior of the studied compounds, an in-depth analysis of the various solution (physico-)chemical properties of the ligands and complexes were performed.
The assay was carried out using an Annexin V-FITC Apoptosis Detection Kit from Sigma-Aldrich according to the manufacturer’s instructions. The concentration of the Colo-205 cell suspension was adjusted to approximately 0.5 × 10^6 cells per mL in RPMI 1640 medium, and the cell suspension was distributed in 1 mL aliquots into a 24-well plate and then incubated overnight at 37 °C and 5% CO2. The next day, the medium was removed and replaced by 1 mL RPMI 1640 medium containing the compounds except for the control samples. […] After the incubation period, the samples were washed with PBS, and a fresh medium was added to the samples. The cells were incubated overnight at 37 °C and 5% CO2. The next day, 200 μL 0.25% Trypsin (Trypsin-Versen) was added to the samples until cells appeared detached, followed by the addition of 400 μL of medium supplemented with 10% bovine serum. The cells were collected in Eppendorf tubes and centrifuged at 2000× g for 2 min. The harvested cells were re-suspended in a fresh serum-free RPMI 1640 culture medium. After this step, the apoptosis assay was carried out according to the protocol of the kit. The fluorescence was analyzed immediately using a ParTec CyFlow flow cytometer (Partec GmbH, Münster, Germany).

pGEX-6P-1 plasmid DNA = assay: In vitro DNA cleavage analysis, agarose gel electrophoresis; type: biochemical; conditions: 50 ng plasmid, 0–100 µM compound, 37 °C, up to 72 h, pH 7.4
Method: In this assay, both single-stranded and double-stranded cleavage can be detected using bacterial plasmid DNA since the plasmid changes from the intact superhelical (sc) conformation to open circular (oc) and linear over digestion, which can be well detected by agarose gel electrophoresis. […] The RhCp* complex behaved similarly up to 10 µM, whereas at 100 µM concentration, the superhelical DNA remained intact during the incubation period, although the disappearance of the open circular DNA line is seen after 72 h. The observed effect is clearly not related to DNA cleavage; since fragmentation or the appearance of linear DNA could not be seen, the supercoiled DNA form was still visible. We can assume that the decrease in intensity might be due to the competition for DNA between the concentrated complex and EB (that is used for the detection of DNA in the gel).
Before the measurements, the reaction buffer was treated with 5 mg/L Chelex-100 (Sigma-Aldrich) cation exchange resin for 30 min at 25 °C. This was followed by filtration of the buffer through 0.2 µm pore size sterile, non-pyrogenic/endotoxin-free non-cytotoxic PES filter (Sarstedt) under laminal flow. The tested compounds were dissolved in this filtered cation exchanged buffer. pGEX-6P-1 DNA was purified by GeneJET plasmid maxiprep kit (Thermo Scientific™, Waltham, MA, USA) and was treated with Chelex-100 resin and filtered as described previously, and was followed by buffer exchange of the DNA sample using Amicon 10K 0.5 mL filters (4 × 5 min, 14,000 g, 25 °C) to the filtered reaction buffer. […] Based on agarose gel electrophoresis, no genomic DNA contamination was detected, and the plasmid DNA is largely in superhelical conformation with a small fraction of open circular form. In a typical reaction, 10 µL aliquots containing 50 ng DNA and 0–100 µM compound were incubated at 37 °C from 0 h up to 3 days. The reaction mixture was immediately examined after incubation or frozen at −30 °C until the gel electrophoresis experiment. […] Images were recorded by a Uvitec BTS 20MS gel documentation system.

[1] = biological target: T1, HSA site II (subdomain IIIA) (Homo sapiens, UniProt P02768); assay: Dansylglycine (DG) site marker displacement, spectrofluorometry; type: binding; conditions: cHSA = 1 µM, cDG = 1 µM, pH 7.4 (PBS’)
T1 construct: purchased Sigma-Aldrich A8763
Method: Tryptophan (Trp-214) quenching and dansylglycine (DG) site marker displacement experiments were performed to calculate binding constants for site I and II, respectively, similar to our previous works.
Fluorescence measurements were carried out on a Fluoromax (Horiba Jobin Yvon, Longjumeau, France) spectrofluorometer using 1 cm × 1 cm quartz cuvette. Samples contained 1 µM HSA or 1 µM DG and 1 µM HSA, or 20 µM (nucleotide) ct-DNA and 5 µM EB, and the complex concentration was varied between 0 and 40 µM or 0 and 300 µM, respectively. Spectroscopic measurements were carried out on individually prepared samples. Excitation wavelengths were 295 nm for Trp-214 quenching, 340 nm for the DG displacement studies and 510 nm for the ct-DNA–EB system. The calculated conditional stability constants for HSA–complex species were obtained using the computer program HypSpec. Calculations always were based on data obtained from at least two independent measurements. Self-absorbance and inner filter effect had to be taken into account, and corrections were made as was described in our former works.

[2] = Solution stability of the complexes by 1H NMR; type: physicochemical; conditions: pH 0.7, 24 h equilibration, 500 μM
Method: Bruker Avance III HD Ascend 500 Plus instrument (Billerica, MA, USA) was used for NMR studies. ^1H NMR spectroscopic measurements were carried out with a WATERGATE water suppression pulse scheme in the presence of 10% (v/v) D2O in most cases. DSS internal standard was added to samples to obtain reference peaks. Complex concentrations were 0.5 mM or 1.0 mM, and 0.5 equiv. HSA was added. ^1H NMR titrations were carried out in the presence of 0.2 M KNO3. With the FHA model peptide, the measurements were performed at 0.5 or 1 mM metal complex concentrations, and 1:1, 1:2 or 2:1 peptide-to-metal complex ratios were applied. The computer program HypSpec was used to obtain stability constants.

T1 sequence (P02768 25-609): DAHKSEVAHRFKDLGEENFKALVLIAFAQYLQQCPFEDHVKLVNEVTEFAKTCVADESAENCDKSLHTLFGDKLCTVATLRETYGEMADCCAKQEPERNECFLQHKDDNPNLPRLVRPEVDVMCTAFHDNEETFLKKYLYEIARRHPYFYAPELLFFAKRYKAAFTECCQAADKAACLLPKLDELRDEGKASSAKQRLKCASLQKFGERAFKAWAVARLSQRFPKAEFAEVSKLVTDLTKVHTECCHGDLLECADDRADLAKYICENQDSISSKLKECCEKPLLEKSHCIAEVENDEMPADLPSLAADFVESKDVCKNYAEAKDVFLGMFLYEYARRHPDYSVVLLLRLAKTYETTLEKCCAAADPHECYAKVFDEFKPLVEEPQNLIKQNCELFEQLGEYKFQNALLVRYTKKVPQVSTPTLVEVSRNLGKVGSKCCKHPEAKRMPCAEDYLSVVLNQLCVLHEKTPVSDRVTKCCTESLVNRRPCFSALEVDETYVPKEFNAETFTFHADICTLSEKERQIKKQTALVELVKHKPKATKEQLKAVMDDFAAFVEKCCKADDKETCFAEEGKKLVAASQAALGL

| Structure (SMILES) | cell death (Q1, A− PI+), gated events (Colo-205 cells) | early apoptosis (Q3, A+ PI−), gated events (Colo-205 cells) | late apoptosis and necrosis (Q2, A+ PI+), gated events (Colo-205 cells) | DNA cleavage / DNA damage (pGEX-6P-1 plasmid DNA) | DG Displacement logKDG′, Site II [1] | late apoptosis and necrosis (Q2, A+ PI+), gated events (Colo-205 cells; listed as RhCp*‒HQCl-D-hPro) | fraction of complex dissociated [2] |
| --- | --- | --- | --- | --- | --- | --- | --- |
| O=C(O)[C@H]1CCCCN1Cc1cc(Cl)c2cccnc2c1O [HQCl-D-hPro, (R)-5-chloro-7-((homoproline-1-yl)methyl)8-hydroxyquinoline] | 27.5% | 0.987% | 9.1% | do not induce DNA cleavage; also recorded: No DNA damage was observed |  |  |  |
| Cc1c(C)c(C)[c-](C)c1C.O=C(O)[C@H]1CCC[NH+]1Cc1cc(Cl)c2cccnc2c1[O-].[Cl-].[Cl-].[Rh+3] [RhCp*–HQCl-D-Pro, [RhCp*(HQCl-D-Pro)Cl]Cl] |  |  |  |  | 5.5 ± 0.1 |  |  |
| Cc1c(C)c(C)[c-](C)c1C.O=C(O)[C@H]1CCCC[NH+]1Cc1cc(Cl)c2cccnc2c1[O-].[Cl-].[Cl-].[Rh+3] [RhCp*–HQCl-D-hPro, [RhCp*(HQCl-D-hPro)Cl]Cl] | 20.7% | 0.838% | 7.5% | do not induce DNA cleavage | 5.4 ± 0.1 | 7.50% | ~ 3% |
| Cc1ccc(C(C)C)cc1.O=C(O)[C@H]1CCC[NH+]1Cc1cc(Cl)c2cccnc2c1[O-].[Cl-].[Cl-].[Ru+2] [RuCym–HQCl-D-Pro, [RuCym(HQCl-D-Pro)Cl]Cl] | 27.9% | 0.288% | 5.37% |  | 5.6 ± 0.1 |  |  |
| Cc1ccc(C(C)C)cc1.O=C(O)[C@H]1CCCC[NH+]1Cc1cc(Cl)c2cccnc2c1[O-].[Cl-].[Cl-].[Ru+2] [RuCym–HQCl-D-hPro, [RuCym(HQCl-D-hPro)Cl]Cl] |  |  | 5.4% | do not induce DNA cleavage; also recorded: No DNA damage was observed | 5.7 ± 0.1 |  | ~ 2% |
